“Also recorded” adds a separate entry of the source. No end group written: not given here.
Legend:
[1] = tested on: TIMP-2 binding site on the surface of endothelial cells; test: Inhibition of peptide binding by TIMP-2 protein; format: cell-based; conditions: purified TIMP-2 protein 0.05 μM, peptide 0.5 μM
Procedure: (§1) Analysis of synthetic peptide binding to cells was performed in 96 well plates. Cells (10^5) were plated into each well, incubated overnight then briefly fixed with cold ethanol for 10 seconds. Serial concentrations of peptide in 100 μl PBS were added and incubated at room temperature with gentle shaking for four hours. The wells were washed three times with PBS and reaction developed using strepavidin-peroxidase substrate (Vector, Burlingame, Calif.). The reactions were quantified at 405 nm in a plate reader (Molecular Devices, Sunnyvale, Calif.). In the inhibition assay, TIMP-2 protein was included with the peptide in the initial incubation.

[2] = tested on: fibroblast line HT1080; test: Peptide binding assay, HT1080; format: cell-based; conditions: not shown
Procedure: (§2) Human umbilical cord venous endothelial cells (HUVEC) and EGM™ culture medium were from Clonetics, Walkersville, Md. Cells were cultivated in EGM with 5% fetal bovine serum (FBS) in flasks coated with 0.2% gelatin. The bEND.3 cells (ATCC) were cultured in Dulbecco's minimum essential medium (DMEM) (Invitrogen, Carlsbad, Calif.) supplemented with 10% FBS and 2 mM L-glutamine. The HT1080 cells were from ATCC and cultured in DMEM supplemented with 10% FBS, 2 mM L- glutamine, 1.5 g/L sodium bicarbonate, and 0.1 mM NEAA (Non-essential amino acids, Invitrogen, Carlsbad, Calif.). The ECV304 were from ATCC and cultured in DMEM, 10% FBS.
as §1

[3] = tested on: HUVEC endothelial cells; test: Peptide binding assay, HUVEC; format: cell-based, human; conditions: serial peptide concentrations, biotinylated synthetic peptides
Procedure: as §2, §1

[4] = tested on: aortic endothelium of ApoE knockout mice; test: Phage binding to aortic valves/endothelium (immunohistochemistry, confocal microscopy); format: in vivo
Procedure: (§3) Immunohistochemical analysis for binding was performed on frozen 5 micron sections of ApoE mouse atherosclerotic aortic valve and aorta on poly-L-lysine coated slides. Biotinylated peptide binding to aortic lesions was detected by strepavidin conjugated peroxidase and was developed with DAB substrate (Vector, Burlingame, Calif.). For endothelial identification, biotinylated […] was used and was detected with Texas red conjugated strepavidin. Phage staining was performed with rabbit anti-phage antibody followed by a fluorescein conjugated goat anti-rabbit antibody. The sections were analyzed by laser scanning confocal microscopy.
(§4) To observe phage or peptide association with atherosclerotic lesions, either phage carrying a homing peptide sequence or a circular synthetic peptide were injected into the mice via the tail vein. […] Fixation was in situ by perfusion with 4% paraformaldehyde. The aortas were dissected under a microscope, and the associated fat tissue cleaned while attached. The aorta was then longitudinally opened from aortic valve to iliac bifurcation. The detached aorta was pinned flat.

[5] = tested on: ECV304; test: Peptide binding assay, ECV304; format: cell-based; conditions: not shown
Procedure: as §2, §1

[6] = non-diabetic insulin resistant monkeys; cited from earlier work
[7] = tested on: atherosclerotic lesions; test: Biotinylated peptide binding in vivo to atherosclerotic lesions (aorta and sections); parameters: species or system atherosclerotic ApoE knockout mice
Procedure: as §3, §4
To verify that the peptidyl sequence CAPGPSKSC (SEQ ID NO:4) that is expressed on phage protein m was responsible for the selective localization to atherosclerotic lesions, a biotinylated peptide containing the core sequence CAPGPSKSC (SEQ ID NO:4) was synthesized, folded, disulfide bonds constituted by oxidization, and compositional validity established by mass spectrometry. The peptide was injected into atherosclerotic ApoE knockout mice via tail vein, and the tissues were fixed by in vivo perfusion, and aortas were freed by dissection. The binding of biotinylated peptide to the aorta was visualized with strepavidin conjugated peroxidase and DAB substrate.
The association of this peptide to the atherosclerotic lesions was also analyzed on tissue sections. The experiment was replicated in atherosclerotic ApoE mice by infusing CAPGPSKSC (SEQ ID NO:4) peptide and sections of the aorta were prepared, detected with strepavidin-conjugated peroxidase and developed with DAB substrate. Peptide binding to the surface of atherosclerotic lesions (FIG. 2B) was quite evident. […] These areas are likely involved in lesion formation and differ to some degree in their phenotype compared to that of the overlying endothelium.

[8] = tested on: human atherosclerotic lesions; test: Biotinylated peptide binding to human vessel specimens
Procedure: The atherosclerotic regions of human vessels were similarly dissected and pinned on to the dissecting pan. These tissues were then incubated with refolded biotinylated peptides (10.0 μg/ml) overnight at 4° C. The samples were washed three times. An avidin-peroxidase conjugate was used as a second tier probe, and each specimen was visualized with DAB substrate.

[9] = sections of aorta, atherosclerotic ApoE mice

Compound | effect of TIMP-2 protein on peptide binding to cells [1] | peptide binding to HT1080 cells [2] | peptide binding to endothelial cells (absorbance at 405 nm) [3] | peptide binding to ECV304 [5] | further results
CNQRHQMSC (A synthetic sequence from a combinatorial phage display library.) [SEQ ID NO:336, Eo3-112] | inhibits binding; also recorded: competitively inhibited | dose dependent binding | dose dependent binding | dose dependent binding | selectivity of localization for atherosclerotic lesion endothelium [4]: associates with a molecule present on both atherosclerotic and normal endothelial surfaces; also recorded: not entirely selective for atherosclerotic lesion endothelium
Cc1cc(SCc2sc(-c3ccc(C(F)(F)F)cc3)nc2C)ccc1OCC(=O)O [GW501516] |  |  |  |  | increase of HDL-C [6]: 80%; increase of apoA-I [6]: 43%; triglyceride, LDL-C and insulin levels [6]: lowered
CYNRSDGMC (A synthetic sequence from a combinatorial phage display library.) [SEQ ID NO:464, TIMP-2 homologous peptide] | inhibits binding; also recorded: competitively inhibited | dose dependent binding | dose dependent binding | dose dependent binding | 
CNHRYMQMC (A synthetic sequence from a combinatorial phage display library.) [SEQ ID NO:344, Eo3-114] | inhibits binding; also recorded: competitively inhibited | dose dependent binding | dose dependent binding | dose dependent binding | 
CAPGPSKSC (not fully specified (bridges); cysteine pairing not given here) [SEQ ID NO:4] |  |  |  |  | peptide binding to lesions of the aorta ([7]; biotinylated synthetic peptide via tail vein, atherosclerotic ApoE knockout mice, streptavidin-peroxidase/DAB): like that of phage displaying the peptide; also recorded: replicated the CAPGPSKSC (SEQ ID NO:4) phage binding to the lesions; peptide binding to the surface of atherosclerotic lesions, tissue sections ([7]; sections of aorta after infusion of peptide, atherosclerotic ApoE mice): quite evident; pattern of peptide binding within the lesion, tissue sections [7, 9]: most intense in the endothelium overlying the atherosclerotic lesion; also recorded: bind more to the endothelium at the periphery of the lesions and less to the central aspect of the lesions; peptide signal outside the lesions, tissue sections [7, 9]: no substantial signal was evident elsewhere; peptide binding to atherosclerotic lesion in human arterial specimen ([8]; biotinylated peptide 10.0 μg/ml on luminal surface, overnight 4° C., avidin-peroxidase/DAB): Bound peptide is apparent; also recorded: preferentially bound to the atherosclerotic plaque; peptide binding to non-atherosclerotic arterial samples or veins ([8]; human vascular samples, biotinylated peptide): no observable binding
